Assay results taken from US20170271704A1, “MITIGATION OF CROSSOVER WITHIN FLOW BATTERIES” (LOCKHEED MARTIN ADVANCED ENERGY STORAGE,LLC, priority 2016, published 2017).

Tests used:
[1] = in water; active material for positive half-cell of a flow battery; cited from earlier work
[2] = Aqueous solubility (Table 1 comparison of positive half-cell active materials); conditions: effective concentration of transferrable electrons (solubility x electrons transferred)

For Fe(CN)6^3−^/4−, the “Aqueous Solubility” value [1] is given as 1300 to 1600 mM and the “Electron Aqueous Solubility” value [2] is given as 1300 to 1600 mM.
